Measured values taken from paper PMC5218480 (PLoS ONE, 2017).

Test system: MV-4-11 cells
Experiment: Gene expression microarray analysis (Affymetrix PrimeView) and GSEA
Type: cell-based, human
Set-up: RFU PODN (11730768_x_at) / Fold change /veh PODN (11730768_x_at) / RFU LINC00158 (11744669_a_at) / Fold change /veh LINC00158 (11744669_a_at) / RFU DUSP10 (11751237_a_at) / Fold change /veh DUSP10 (11751237_a_at) / RFU ID3 (11757404_x_at) / Fold change /veh ID3 (11757404_x_at) / RFU PLEKHG5 (11737974_s_at) / Fold change /veh PLEKHG5 (11737974_s_at) / RFU LRRC4B (11730491_at) / Fold change /veh LRRC4B (11730491_at) / RFU GIMAP4 (11747438_a_at) / Fold change /veh GIMAP4 (11747438_a_at) / RFU KRT8 (11758183_x_at) / Fold change /veh KRT8 (11758183_x_at) / RFU CNN1 (11734310_a_at) / Fold change /veh CNN1 (11734310_a_at) / RFU VPS37D (11726825_at) / Fold change /veh VPS37D (11726825_at) / RFU C10orf10 (11716522_x_at) / Fold change /veh C10orf10 (11716522_x_at) / RFU KIR2DL2 /// KIR2DL4 /// KIR2DL5A /// KIR2DL5B /// KIR2DS1 /// KIR2DS2 /// KIR2DS3 /// KIR2DS4 /// KIR3DL3 /// KIR3DL3 /// KIR3DS1 (11738374_at) / Fold change /veh KIR2DL2 /// KIR2DL4 /// KIR2DL5A /// KIR2DL5B /// KIR2DS1 /// KIR2DS2 /// KIR2DS3 /// KIR2DS4 /// KIR3DL3 /// KIR3DL3 /// KIR3DS1 (11738374_at) / RFU C1QL1 (11718748_at) / Fold change /veh C1QL1 (11718748_at) / RFU TMPRSS4 (11747572_a_at) / Fold change /veh TMPRSS4 (11747572_a_at) / RFU HAMP (11756126_x_at) / Fold change /veh HAMP (11756126_x_at) / RFU RNFT2 (11725882_a_at) / Fold change /veh RNFT2 (11725882_a_at) / RFU NR4A2 (11747474_a_at) / Fold change /veh NR4A2 (11747474_a_at) / RFU ABCC12 (11746883_a_at) / Fold change /veh ABCC12 (11746883_a_at) / RFU TMEM136 (11760407_x_at) / Fold change /veh TMEM136 (11760407_x_at) / RFU CLDN22 /// WWC2 (11732394_at) / Fold change /veh CLDN22 /// WWC2 (11732394_at) / RFU HLA-DPB1 (11760878_x_at) / Fold change /veh HLA-DPB1 (11760878_x_at) / RFU SPINT1 (11716480_a_at) / Fold change /veh SPINT1 (11716480_a_at) / RFU GAP43 (11754022_s_at) / Fold change /veh GAP43 (11754022_s_at) / RFU A4GNT (11735810_at) / Fold change /veh A4GNT (11735810_at) / RFU PRB3 (11715151_x_at) / Fold change /veh PRB3 (11715151_x_at) / RFU TUBB4B (11761932_at) / Fold change /veh TUBB4B (11761932_at) / RFU CAPN14 (11732068_a_at) / Fold change /veh CAPN14 (11732068_a_at) / RFU TMCC2 (11721928_a_at) / Fold change /veh TMCC2 (11721928_a_at) / RFU IRGQ (11745062_a_at) / Fold change /veh IRGQ (11745062_a_at) / RFU FAM174B (11720279_a_at) / Fold change /veh FAM174B (11720279_a_at) / RFU TMPRSS4 (11748680_a_at) / Fold change /veh TMPRSS4 (11748680_a_at) / RFU FAM212B (11763350_a_at) / Fold change /veh FAM212B (11763350_a_at) / RFU PLEKHG5 (11743358_a_at) / Fold change /veh PLEKHG5 (11743358_a_at) / RFU ZSCAN30 (11745921_a_at) / Fold change /veh ZSCAN30 (11745921_a_at) / RFU CMKLR1 (11741424_a_at) / Fold change /veh CMKLR1 (11741424_a_at) / RFU LOC101060620 /// MAPK8IP1 (11723275_at) / Fold change /veh LOC101060620 /// MAPK8IP1 (11723275_at) / RFU SPTSSB (11747773_x_at) / Fold change /veh SPTSSB (11747773_x_at) / RFU PRSS12 (11739890_at) / Fold change /veh PRSS12 (11739890_at) / RFU BIN1 (11741810_x_at) / Fold change /veh BIN1 (11741810_x_at) / RFU WNT11 (11732464_a_at) / Fold change /veh WNT11 (11732464_a_at) / RFU C10orf10 (11716521_a_at) / Fold change /veh C10orf10 (11716521_a_at) / RFU C5orf56 (11738089_at) / Fold change /veh C5orf56 (11738089_at) / RFU CYB561 (11721691_x_at) / Fold change /veh CYB561 (11721691_x_at) / RFU ANKRD19P (11752326_a_at) / Fold change /veh ANKRD19P (11752326_a_at) / RFU OR2T12 /// OR2T33 /// OR2T8 (11738714_s_at) / Fold change /veh OR2T12 /// OR2T33 /// OR2T8 (11738714_s_at) / RFU VCAN (11748164_a_at) / Fold change /veh VCAN (11748164_a_at) / RFU JSRP1 (11732532_at) / Fold change /veh JSRP1 (11732532_at) / RFU KRTAP10-11 (11738290_x_at) / Fold change /veh KRTAP10-11 (11738290_x_at) / RFU MYO3A (11730013_a_at) / Fold change /veh MYO3A (11730013_a_at) / RFU EBF3 (11725865_a_at) / Fold change /veh EBF3 (11725865_a_at) / RFU CAMK2N1 (11719241_x_at) / Fold change /veh CAMK2N1 (11719241_x_at) / RFU C5orf56 (11738088_a_at) / Fold change /veh C5orf56 (11738088_a_at) / RFU OLFML3 (11715873_a_at) / Fold change /veh OLFML3 (11715873_a_at) / RFU LOC100653217 /// NTM (11731650_a_at) / Fold change /veh LOC100653217 /// NTM (11731650_a_at) / RFU MAPK11 (11762145_a_at) / Fold change /veh MAPK11 (11762145_a_at) / RFU FIZ1 (11724087_x_at) / Fold change /veh FIZ1 (11724087_x_at) / RFU OASL (11726364_x_at) / Fold change /veh OASL (11726364_x_at) / RFU SOX15 (11748057_x_at) / Fold change /veh SOX15 (11748057_x_at) / RFU CD79A (11719716_a_at) / Fold change /veh CD79A (11719716_a_at) / RFU HIST1H1D (11736915_at) / Fold change /veh HIST1H1D (11736915_at) / RFU CASKIN2 (11723855_a_at) / Fold change /veh CASKIN2 (11723855_a_at) / RFU LOC730098 (11760151_x_at) / Fold change /veh LOC730098 (11760151_x_at) / RFU OR4N2 (11742367_at) / Fold change /veh OR4N2 (11742367_at) / RFU PRRT2 (11749266_a_at) / Fold change /veh PRRT2 (11749266_a_at) / RFU SNX32 (11753110_a_at) / Fold change /veh SNX32 (11753110_a_at) / RFU CDHR5 (11726645_a_at) / Fold change /veh CDHR5 (11726645_a_at) / RFU RCAN1 (11760418_a_at) / Fold change /veh RCAN1 (11760418_a_at) / RFU FAM167A (11723789_a_at) / Fold change /veh FAM167A (11723789_a_at) / RFU FAM26E (11764081_at) / Fold change /veh FAM26E (11764081_at) / RFU ISYNA1 (11749810_s_at) / Fold change /veh ISYNA1 (11749810_s_at) / RFU ACY1 (11761880_at) / Fold change /veh ACY1 (11761880_at) / RFU 11764098_at / Fold change /veh 11764098_at / RFU SAMD14 (11745864_x_at) / Fold change /veh SAMD14 (11745864_x_at) / RFU NPB (11741838_a_at) / Fold change /veh NPB (11741838_a_at) / RFU TMPRSS6 (11731388_a_at) / Fold change /veh TMPRSS6 (11731388_a_at) / RFU KRTAP10-2 (11738614_at) / Fold change /veh KRTAP10-2 (11738614_at) / RFU ARHGAP8 /// PRR5-ARHGAP8 (11727945_x_at) / Fold change /veh ARHGAP8 /// PRR5-ARHGAP8 (11727945_x_at) / RFU KRTAP5-7 /// NADSYN1 (11734609_at) / Fold change /veh KRTAP5-7 /// NADSYN1 (11734609_at) / RFU RASL12 (11751679_a_at) / Fold change /veh RASL12 (11751679_a_at) / RFU CDKN2B (11736163_a_at) / Fold change /veh CDKN2B (11736163_a_at) / RFU PRF1 (11729649_at) / Fold change /veh PRF1 (11729649_at) / RFU, ZNF638 /// ZNF638-IT1 / Fold change vs veh, ZNF638 /// ZNF638-IT1 / RFU, PANK3 / Fold change vs veh, PANK3 / RFU, SH3YL1 / Fold change vs veh, SH3YL1 / RFU, ZEB2 / Fold change vs veh, ZEB2 / RFU, NRIP1 / Fold change vs veh, NRIP1 / RFU, PTTG1IP / Fold change vs veh, PTTG1IP / RFU, CAPN2 / Fold change vs veh, CAPN2 / RFU, MED14 / Fold change vs veh, MED14 / RFU, SNORA58 / Fold change vs veh, SNORA58 / RFU, C1orf63 / Fold change vs veh, C1orf63 / RFU, LRRFIP1 / Fold change vs veh, LRRFIP1 / RFU, NDUFAF7 / Fold change vs veh, NDUFAF7 / RFU, SLC12A2 / Fold change vs veh, SLC12A2 / RFU, IBTK / Fold change vs veh, IBTK / RFU, ESF1 / Fold change vs veh, ESF1 / Fold change vs veh, TMEM50B / RFU, TAOK1 / Fold change vs veh, TAOK1 / RFU, ACBD3 / Fold change vs veh, ACBD3 / RFU, TMA16 / Fold change vs veh, TMA16 / RFU, RWDD3 / Fold change vs veh, RWDD3 / RFU, BCAT1 / Fold change vs veh, BCAT1 / RFU, EDEM3 / Fold change vs veh, EDEM3 / RFU, TMEM33 / Fold change vs veh, TMEM33 / RFU, WDR75 / Fold change vs veh, WDR75 / RFU, AHCTF1 / Fold change vs veh, AHCTF1 / RFU, TFRC / Fold change vs veh, TFRC / RFU, ZDHHC17 / Fold change vs veh, ZDHHC17 / RFU, NOM1 / Fold change vs veh, NOM1 / RFU, ARL8B / Fold change vs veh, ARL8B / RFU, ZBTB11 / Fold change vs veh, ZBTB11 / RFU, TAMM41 / Fold change vs veh, TAMM41 / RFU, KIAA1704 /// LOC100996395 / Fold change vs veh, KIAA1704 /// LOC100996395 / RFU, ING1 / Fold change vs veh, ING1 / RFU, TRMT61B / Fold change vs veh, TRMT61B / RFU, FUBP3 / Fold change vs veh, FUBP3 / RFU, TP53 / Fold change vs veh, TP53 / RFU, TNKS2 / Fold change vs veh, TNKS2 / RFU, ZFP14 / Fold change vs veh, ZFP14 / RFU, ACTR2 / Fold change vs veh, ACTR2 / RFU, PPP3R1 / Fold change vs veh, PPP3R1 / RFU, PIK3R1 / Fold change vs veh, PIK3R1 / RFU, HNRNPA1 / Fold change vs veh, HNRNPA1 / RFU, RNF170 / Fold change vs veh, RNF170 / RFU, ZNF28 / Fold change vs veh, ZNF28 / RFU, RNGTT / Fold change vs veh, RNGTT / RFU, OGT / Fold change vs veh, OGT / RFU, BRD1 / Fold change vs veh, BRD1 / RFU, MARS / Fold change vs veh, MARS / RFU, ZNF655 / Fold change vs veh, ZNF655 / RFU, FAHD1 / Fold change vs veh, FAHD1 / RFU, BDP1 / Fold change vs veh, BDP1 / RFU, LRRCC1 / Fold change vs veh, LRRCC1 / RFU, ARID1A / Fold change vs veh, ARID1A / RFU, ZNF146 / Fold change vs veh, ZNF146 / RFU, ZNF330 / Fold change vs veh, ZNF330 / RFU, GPN3 / Fold change vs veh, GPN3 / RFU, C9orf123 / Fold change vs veh, C9orf123 / RFU, N4BP2L2 / Fold change vs veh, N4BP2L2 / RFU, ARFIP1 / Fold change vs veh, ARFIP1 / RFU, FAM179B / Fold change vs veh, FAM179B / RFU, BCL10 / Fold change vs veh, BCL10 / RFU, UHRF1BP1L / Fold change vs veh, UHRF1BP1L / RFU, BET1 / Fold change vs veh, BET1 / RFU, CNOT2 / Fold change vs veh, CNOT2 / RFU, ZNF268 / Fold change vs veh, ZNF268 / Fold change vs veh, ZNF507 / RFU, DGCR2 / Fold change vs veh, DGCR2 / RFU, WDSUB1 / Fold change vs veh, WDSUB1 / Fold change vs veh, HSP90B1 /// MIR3652 / RFU, ADSS / Fold change vs veh, ADSS / RFU, GK / Fold change vs veh, GK / RFU, ZNF148 / Fold change vs veh, ZNF148 / RFU, TAF9 / Fold change vs veh, TAF9 / RFU, SLC1A5 / Fold change vs veh, SLC1A5 / RFU, SLMO2 / Fold change vs veh, SLMO2 / RFU, ABCC4 / Fold change vs veh, ABCC4 / RFU, LOC101060439 /// RAP1B / Fold change vs veh, LOC101060439 /// RAP1B / RFU, RFX7 / Fold change vs veh, RFX7 / RFU, GTPBP10 / Fold change vs veh, GTPBP10 / RFU, CNEP1R1 / Fold change vs veh, CNEP1R1 / RFU, BIVM-ERCC5 /// ERCC5 / Fold change vs veh, BIVM-ERCC5 /// ERCC5 / RFU, ILF3 / Fold change vs veh, ILF3 / RFU 11762660_at / Fold change /veh 11762660_at / RFU VCAN (11757783_s_at) / Fold change /veh VCAN (11757783_s_at) / RFU DDX43 (11728927_at) / Fold change /veh DDX43 (11728927_at) / RFU KRT8 (11758188_x_at) / Fold change /veh KRT8 (11758188_x_at) / RFU NKD1 (11759106_at) / Fold change /veh NKD1 (11759106_at) / RFU SRD5A1 (11742802_a_at) / Fold change /veh SRD5A1 (11742802_a_at) / RFU TPSAB1 /// TPSB2 (11721975_s_at) / Fold change /veh TPSAB1 /// TPSB2 (11721975_s_at) / RFU GSTM3 (11746129_a_at) / Fold change /veh GSTM3 (11746129_a_at) / RFU IL23R (11737362_x_at) / Fold change /veh IL23R (11737362_x_at) / RFU TMEM51 (11727254_a_at) / Fold change /veh TMEM51 (11727254_a_at) / RFU PIWIL2 (11732686_x_at) / Fold change /veh PIWIL2 (11732686_x_at) / RFU ORM1 (11744905_x_at) / Fold change /veh ORM1 (11744905_x_at) / RFU CCDC152 (11743942_at) / Fold change /veh CCDC152 (11743942_at) / RFU ECM1 (11717891_a_at) / Fold change /veh ECM1 (11717891_a_at) / RFU IL23R (11748794_a_at) / Fold change /veh IL23R (11748794_a_at) / RFU TNFAIP8L3 (11732012_x_at) / Fold change /veh TNFAIP8L3 (11732012_x_at) / RFU MBOAT4 (11741988_at) / Fold change /veh MBOAT4 (11741988_at) / RFU 11764193_at / Fold change /veh 11764193_at / RFU TMEM53 (11763286_at) / Fold change /veh TMEM53 (11763286_at) / RFU MAGEB2 (11727129_at) / Fold change /veh MAGEB2 (11727129_at) / RFU TMEM200A (11744735_a_at) / Fold change /veh TMEM200A (11744735_a_at) / RFU CCDC152 (11751479_a_at) / Fold change /veh CCDC152 (11751479_a_at) / RFU FAM211A (11726209_a_at) / Fold change /veh FAM211A (11726209_a_at) / RFU RGS16 (11746705_a_at) / Fold change /veh RGS16 (11746705_a_at) / RFU VCAN (11755009_s_at) / Fold change /veh VCAN (11755009_s_at) / RFU RHOB (11743442_s_at) / Fold change /veh RHOB (11743442_s_at) / RFU RGS16 (11720943_a_at) / Fold change /veh RGS16 (11720943_a_at) / RFU RGS16 (11720944_at) / Fold change /veh RGS16 (11720944_at) / RFU, VPS4B / Fold change vs veh, VPS4B / RFU, CREB1 / Fold change vs veh, CREB1 / RFU, DNAJC13 / Fold change vs veh, DNAJC13 / RFU, GNAQ / Fold change vs veh, GNAQ / RFU, CDK5R1 / Fold change vs veh, CDK5R1 / RFU, ZRANB3 / Fold change vs veh, ZRANB3 / RFU, CUL4A / Fold change vs veh, CUL4A / RFU, CCNY / Fold change vs veh, CCNY / RFU, UFL1 / Fold change vs veh, UFL1 / RFU, COG3 / Fold change vs veh, COG3 / RFU, DIAPH2 / Fold change vs veh, DIAPH2 / RFU, SKA2 / Fold change vs veh, SKA2 / RFU, AFF3 / Fold change vs veh, AFF3 / RFU, LMF1 / Fold change vs veh, LMF1 / RFU, IPO11 / Fold change vs veh, IPO11 / RFU, DFFB / Fold change vs veh, DFFB / RFU, FOXP1 / Fold change vs veh, FOXP1 / RFU, CARD8 / Fold change vs veh, CARD8 / RFU, STRN3 / Fold change vs veh, STRN3 / RFU, ADK / Fold change vs veh, ADK / RFU, RASSF2 / Fold change vs veh, RASSF2 / RFU, WIPF1 / Fold change vs veh, WIPF1 / RFU, LARP1B / Fold change vs veh, LARP1B / RFU, RASA1 / Fold change vs veh, RASA1 / RFU, RB1 / Fold change vs veh, RB1 / RFU, PPFIA1 / Fold change vs veh, PPFIA1 / RFU, MAT2A / Fold change vs veh, MAT2A / RFU, CCT5 / Fold change vs veh, CCT5 / RFU, WDR92 / Fold change vs veh, WDR92 / RFU, CUX1 / Fold change vs veh, CUX1 / RFU, TTC7A / Fold change vs veh, TTC7A / RFU, TMEM135 / Fold change vs veh, TMEM135 / RFU, DEPTOR / Fold change vs veh, DEPTOR / RFU, CPM / Fold change vs veh, CPM / RFU, DNAJB6 / Fold change vs veh, DNAJB6 / RFU, CACNA2D3 / Fold change vs veh, CACNA2D3 / RFU, DTX4 / Fold change vs veh, DTX4 / RFU, TFCP2 / Fold change vs veh, TFCP2 / RFU, GMCL1 /// GMCL1P1 / Fold change vs veh, GMCL1 /// GMCL1P1 / RFU, AEBP2 / Fold change vs veh, AEBP2 / RFU, SNHG1 /// SNORD22 /// SNORD25 /// SNORD26 /// SNORD27 /// SNORD28 /// SNORD29 /// SNORD31 / Fold change vs veh, SNHG1 /// SNORD22 /// SNORD25 /// SNORD26 /// SNORD27 /// SNORD28 /// SNORD29 /// SNORD31 / Fold change (Aza/veh), C12orf56 (ProbeSet 11735607_a_at) / Fold change (ACY-1035/veh), C12orf56 (ProbeSet 11735607_a_at) / Fold change (Aza/veh), FGFR1OP (ProbeSet 11751329_s_at) / Fold change (ACY-1035/veh), FGFR1OP (ProbeSet 11751329_s_at) / Fold change (Aza/veh), VPS36 (ProbeSet 11739960_a_at) / Fold change (ACY-1035/veh), VPS36 (ProbeSet 11739960_a_at) / RFU SYPL1 (11715823_x_at) / Fold change /veh SYPL1 (11715823_x_at) / RFU IGFBP7 (11715501_s_at) / Fold change /veh IGFBP7 (11715501_s_at) / RFU REEP3 (11722064_at) / Fold change /veh REEP3 (11722064_at) / RFU IGLL1 (11728026_x_at) / Fold change /veh IGLL1 (11728026_x_at): dose or concentration left out as unconfirmed
Settings: ProbeSet 11757113_a_at; LIST D

Nc1ccc(-c2cccs2)cc1NC(=O)c1ccc2c(c1)cc(C1CC1)n2CCN1CCOCC1 [ACY-1035]
RFU, SNHG1 /// SNORD22 /// SNORD25 /// SNORD26 /// SNORD27 /// SNORD28 /// SNORD29 /// SNORD31: 319.01 RFU
